Source: publication doi:10.1101/2024.08.19.608619, “Discovery of potent SARS-CoV-2 nsp3 macrodomain inhibitors uncovers lack of translation to cellular antiviral response” (bioRxiv, 2024)
Read-outs that look alike come from different tables or passages of the source.

What was measured:
[1] = target: T1, SARS-CoV-2 nsp3-mac1 (Severe acute respiratory syndrome coronavirus 2, UniProt P0DTD1); assay: biochemical; format: biochemical; conditions: SARS-CoV-2 nsp3 macrodomain TR-FRET single point
[2] = target: T1, SARS-CoV-2 nsp3-mac1; assay: biochemical; design: SARS-CoV-2 nsp3 macrodomain TR-FRET single point, per cent inhibition, n=2
[3] = read-out: perc_inhibition_mean, batch_name=ASAP-0000337-001
[4] = read-out: perc_inhibition_mean, batch_name=ASAP-0000338-001
[5] = read-out: perc_inhibition_mean, batch_name=ASAP-0000339-001
[6] = read-out: perc_inhibition_mean, batch_name=ASAP-0000340-001
[7] = read-out: perc_inhibition_mean, batch_name=ASAP-0000341-001
[8] = read-out: perc_inhibition_mean, batch_name=ASAP-0000342-001
[9] = read-out: perc_inhibition_mean, batch_name=ASAP-0000343-001
[10] = read-out: perc_inhibition_mean, batch_name=ASAP-0000344-001
[11] = read-out: perc_inhibition_mean, batch_name=ASAP-0000345-001
[12] = read-out: perc_inhibition_mean, batch_name=ASAP-0000346-001
[13] = read-out: perc_inhibition_mean, batch_name=ASAP-0000347-001
[14] = read-out: perc_inhibition_mean, batch_name=ASAP-0000348-001
[15] = read-out: perc_inhibition_mean, batch_name=ASAP-0000349-001
[16] = read-out: perc_inhibition_mean, batch_name=ASAP-0000350-001
[17] = read-out: perc_inhibition_mean, batch_name=ASAP-0000351-001
[18] = read-out: perc_inhibition_mean, batch_name=ASAP-0000352-001
[19] = read-out: perc_inhibition_mean, batch_name=ASAP-0000353-001

For O=C(NCC1(O)CCOCC1)c1cnn2ccc(C3CCN(C(=O)c4ccccc4)CC3)cc12 [ASAP-0000337], the perc_inhibition_mean ([1]; concentration 49.75 uM, n=2) was -3.965%, the perc_inhibition_mean ([1]; concentration 99.5 uM, n=2) was -1.103% and the inhibition at 49.75 µM [2, 3] was -3.96%. It also gave an inhibition at 99.5 µM [2, 3] of -1.1%.
With CNC[C@@H]1CCCN1C(=O)c1cnn2ccc(C3CCN(C(=O)c4ccccc4)CC3)cc12 [ASAP-0000338] the perc_inhibition_mean ([1]; concentration 49.75 uM, n=2) was -1.474%, the perc_inhibition_mean ([1]; concentration 99.5 uM, n=2) was -2.203% and the inhibition at 49.75 µM [2, 4] was -1.47%. The inhibition at 99.5 µM [2, 4] was -2.2%.
CN(Cc1cn(C)nn1)C(=O)c1ccc(NC(=O)Nc2ccccc2)cc1 [ASAP-0000339] was tested, and the perc_inhibition_mean ([1]; concentration 49.75 uM, n=2) was 0.883%, the perc_inhibition_mean ([1]; concentration 99.5 uM, n=2) was 0.566% and the inhibition at 49.75 µM [2, 5] was 0.883%. It also gave an inhibition at 99.5 µM [2, 5] of 0.566%.
Cn1cc(Br)c(CNC(=O)c2ccc(NC(=O)Nc3ccccc3)cc2)n1 [ASAP-0000340] showed a perc_inhibition_mean ([1]; concentration 49.75 uM, n=2) of 4.308%, a perc_inhibition_mean ([1]; concentration 99.5 uM, n=2) of 1.196% and an inhibition at 49.75 µM [2, 6] of 4.31%. It also gave an inhibition at 99.5 µM [2, 6] of 1.2%.
Molecule O=C(NCc1cn[nH]c1)c1cnn2ccc(C3CCN(C(=O)c4ccccc4)CC3)cc12 [ASAP-0000341] has a perc_inhibition_mean ([1]; concentration 49.75 uM, n=2) of -2.366%, a perc_inhibition_mean ([1]; concentration 99.5 uM, n=2) of -4.505% and an inhibition at 49.75 µM [2, 7] of -2.37%. For the same molecule, the inhibition at 99.5 µM [2, 7] was -4.5%.
For O=C(Nc1ccccc1)Nc1ccc(C(=O)Nc2cnnc(Cl)c2)cc1 [ASAP-0000342], the perc_inhibition_mean ([1]; concentration 49.75 uM, n=2) was -1.718%, the perc_inhibition_mean ([1]; concentration 99.5 uM, n=2) was -0.19% and the inhibition at 49.75 µM [2, 8] was -1.72%. The inhibition at 99.5 µM [2, 8] was -0.19%.
O=C1NC[C@@H](C(=O)N(CCC(=O)N2CCNCC2)Cc2cccc(Cl)c2)O1 [ASAP-0000343] showed a perc_inhibition_mean ([1]; concentration 49.75 uM, n=2) of 0.125%, a perc_inhibition_mean ([1]; concentration 99.5 uM, n=2) of 5.241% and an inhibition at 49.75 µM [2, 9] of 0.125%. The inhibition at 99.5 µM [2, 9] was 5.24%.
Molecule O=C(CCN(Cc1cccc(Cl)c1)C(=O)[C@H]1C[C@H](O)C1)N1CCNCC1 [ASAP-0000344] has a perc_inhibition_mean ([1]; concentration 49.75 uM, n=2) of -2.133%, a perc_inhibition_mean ([1]; concentration 99.5 uM, n=2) of -3.766% and an inhibition at 49.75 µM [2, 10] of -2.13%. The inhibition at 99.5 µM [2, 10] was -3.77%.
Molecule O=C(c1cnc[nH]1)N1CCC(c2ccn3ncc(C(=O)N4CCCCC4)c3c2)CC1 [ASAP-0000345] has a perc_inhibition_mean ([1]; concentration 49.75 uM, n=2) of 20.282%, a perc_inhibition_mean ([1]; concentration 99.5 uM, n=2) of 35.337% and an inhibition at 49.75 µM [2, 11] of 20.3%. The inhibition at 99.5 µM [2, 11] was 35.3%.
C[C@H](NC(=O)c1cnn2ccc(C3CCN(C(=O)c4ccccc4)CC3)cc12)c1cccnc1 [ASAP-0000346] was tested, and the perc_inhibition_mean ([1]; concentration 49.75 uM, n=2) was -1.839%, the perc_inhibition_mean ([1]; concentration 99.5 uM, n=2) was -6.209% and the inhibition at 49.75 µM [2, 12] was -1.84%. For the same molecule, the inhibition at 99.5 µM [2, 12] was -6.21%.
With O=C(N[C@@H]1CCCNC1=O)c1cnn2ccc(C3CCN(C(=O)c4ccccc4)CC3)cc12 [ASAP-0000347] the perc_inhibition_mean ([1]; concentration 49.75 uM, n=2) was -3.161%, the perc_inhibition_mean ([1]; concentration 99.5 uM, n=2) was -4.869% and the inhibition at 49.75 µM [2, 13] was -3.16%. For the same molecule, the inhibition at 99.5 µM [2, 13] was -4.87%.
O=C(NCc1c[nH]nn1)c1cnn2ccc(C3CCN(C(=O)c4ccccc4)CC3)cc12 [ASAP-0000348] showed a perc_inhibition_mean ([1]; concentration 49.75 uM, n=2) of -2.856%, a perc_inhibition_mean ([1]; concentration 99.5 uM, n=2) of 2.165% and an inhibition at 49.75 µM [2, 14] of -2.86%. It also gave an inhibition at 99.5 µM [2, 14] of 2.17%.
CN1CCC[C@@H]1CNC(=O)c1cnn2ccc(C3CCN(C(=O)c4ccccc4)CC3)cc12 [ASAP-0000349] showed a perc_inhibition_mean ([1]; concentration 49.75 uM, n=2) of -4.432%, a perc_inhibition_mean ([1]; concentration 99.5 uM, n=2) of 1.495% and an inhibition at 49.75 µM [2, 15] of -4.43%. The inhibition at 99.5 µM [2, 15] was 1.5%.
O=C(N[C@H]1CCC[C@H]1C(=O)O)c1cnn2ccc(C3CCN(C(=O)c4ccccc4)CC3)cc12 [ASAP-0000350] gave a perc_inhibition_mean ([1]; concentration 49.75 uM, n=2) of 59.585%, a perc_inhibition_mean ([1]; concentration 99.5 uM, n=2) of 73.53% and an inhibition at 49.75 µM [2, 16] of 59.6%. It also gave an inhibition at 99.5 µM [2, 16] of 73.5%.
Cc1cnc(C(=O)N(CCC(=O)N2CCNCC2)Cc2cccc(Cl)c2)nc1 [ASAP-0000351] was tested, and the perc_inhibition_mean ([1]; concentration 49.75 uM, n=2) was -1.487%, the perc_inhibition_mean ([1]; concentration 99.5 uM, n=2) was 6.47% and the inhibition at 49.75 µM [2, 17] was -1.49%. The inhibition at 99.5 µM [2, 17] was 6.47%.
Work on O=C(NCCn1cncn1)c1cnn2ccc(C3CCN(C(=O)c4ccccc4)CC3)cc12 [ASAP-0000352] yielded a perc_inhibition_mean ([1]; concentration 49.75 uM) of -3.7%, a perc_inhibition_mean ([1]; concentration 99.5 uM, n=2) of -2.566% and an inhibition at 49.75 µM [2, 18] of -3.7%. The inhibition at 99.5 µM [2, 18] was -2.57%.
With O=C(NC[C@@H]1CCCCN1)c1cnn2ccc(C3CCN(C(=O)c4ccccc4)CC3)cc12 [ASAP-0000353] the perc_inhibition_mean ([1]; concentration 49.75 uM) was -5.92%, the perc_inhibition_mean ([1]; concentration 99.5 uM) was -2.573% and the inhibition at 49.75 µM [2, 19] was -5.92%. The inhibition at 99.5 µM [2, 19] was -2.57%.
